In patent publication US4703058A, “β-methylene furanethanamines and use as anti-hypertensive agents” (Merrell Dow Pharmaceuticals Inc., priority 1986, dated 1987):

Key:
[1] = biological target: T1, dopamine β-hydroxylase (DBH) (Bos taurus, UniProt P15101); test: DBH inhibitory activity - in vitro (time-dependent inactivation; tyramine as substrate, oxygen uptake by polarographic electrode); type: biochemical
T1 sequence (P15101 1-610): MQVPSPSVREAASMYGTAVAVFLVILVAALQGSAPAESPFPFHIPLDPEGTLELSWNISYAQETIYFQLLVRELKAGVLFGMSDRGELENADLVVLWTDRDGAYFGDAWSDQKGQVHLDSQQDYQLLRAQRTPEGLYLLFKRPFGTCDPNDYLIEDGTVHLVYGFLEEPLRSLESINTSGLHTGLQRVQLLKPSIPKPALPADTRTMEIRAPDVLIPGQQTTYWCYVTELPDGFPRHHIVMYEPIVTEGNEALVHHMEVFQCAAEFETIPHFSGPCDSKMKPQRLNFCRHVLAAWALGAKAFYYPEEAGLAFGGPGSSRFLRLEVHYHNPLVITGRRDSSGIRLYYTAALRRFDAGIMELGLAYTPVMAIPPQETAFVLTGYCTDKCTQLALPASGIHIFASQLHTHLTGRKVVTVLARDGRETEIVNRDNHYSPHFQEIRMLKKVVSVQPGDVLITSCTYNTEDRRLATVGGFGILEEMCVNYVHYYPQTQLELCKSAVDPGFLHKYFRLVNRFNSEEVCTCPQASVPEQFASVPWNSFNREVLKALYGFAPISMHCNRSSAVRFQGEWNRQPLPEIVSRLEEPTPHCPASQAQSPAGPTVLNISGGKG
Procedure: The dopamine β-hydroxylase inhibitory properties of the compounds of this invention can readily be determined by standard and well known procedures such as those procedures set forth in U.S. Pat. No. 4,415,191. For example, determination of whether the DBH inhibition allows time-dependent kinetics is exemplified by the procedure wherein enzymatic oxygenation by DBH is determined in aqueous solution in the presence of molecular oxygen, an electron donor such as ascorbate, and the necessary cofactors for the enzyme at a pH of 5 and a temperature of 20°-40° C., preferrably 37° C. The test compound is added at the desired concentration, and the system is incubated. At different time intervals, aliquots are taken and DBH activity is measured using tyramine as the substrate and the reaction followed by measuring the oxygen uptake using a polarographic electrode and an oxygen monitor by the method of S. May et al., J. Biol. Chem. 256, 2258 (1981). The inhibition constants for the inactivation of DBH by each compound are then determined by conventional procedures such as the method of Kitz and Wilson, J. Biol. Chem. 237, 3245 (1962). When the compound shown in Table I was tested according to the above described procedure, the DBH inhibitory activity increased as a function of the time of incubation. The initial rate of decrease of activity increased with increasing concentration of inhibitor. The results in Table I indicate that β-methylene-2-furanethanamine is potent as illustrated by the rapid rate of inactivation (kinact) and low inhibition contant (KI).

hypertensive rats = test: Antihypertensive activity - in vivo (hypertensive rats, blood pressure monitored continuously)
Procedure: The ability of the compounds of this invention to lower blood pressure can be determined in vivo using hypertensive rats according to standard and well known procedures. The test compound is administered intraperitoneally (ip) or orally (po) to rats and the blood pressure monitored continuously. Since DBH is a major enzyme in the synthetic pathway of the catecholamines, it would be expected that the presence of an inhibitor would act to decrease the amount of catecholamines produced, and thereby have an antihypertensive effect.

Compound: C=C(CN)c1ccco1 [β-Methylene-2-Furanethanamine]
- DBH inhibition, result in words (potency) ([1]; in words, from Table I): potent
- Ki ([1]; inactivation of DBH, Kitz and Wilson method, pH 5, 20°-40° C., preferably 37° C., tyramine substrate): 8 mM
- kinact ([1]; rate of inactivation of DBH, Kitz and Wilson method, pH 5, 20°-40° C., preferably 37° C., tyramine substrate): 6.67e-05 s⁻¹
- Maximum % Change Mean Blood Pressure (hypertensive rats; 10 mg/kg (ip)): 18%
- Maximum % Change Mean Blood Pressure (hypertensive rats; 30 mg/kg (ip)): 32%
